Data taken from paper PMC2818973 (Journal of medicinal chemistry, 2010).

Details: mouse, in vivo, iv

CC(=NNc1ccc(I)cn1)c1ccc2c(c1)C1C=CCC1C(c1cc3c(cc1Br)OCO3)N2 (stereo not shown) [Compound 9, N-{1-[4-(6-Bromo-benzo[1,3]dioxol-5-yl)-3a,4,5,9b-tetrahydro-3H-cyclopenta[c]quinolin-8-yl]-ethylidene}-N′-(5-iodo-pyridin-2-yl)-hydrazine]
metabolism and clearance (in words): rapidly metabolized and eliminated via the hepatobiliary system
